This is an account of results in patent EP0273199A2, “Uses of 3,4-diphenyl piperidine derivatives or medicines, 3,4-diphenyl piperidine derivatives, and process for their preparation” (LABORATOIRES HOECHST S.A., priority 1986, dated 1988).

For experiment [1], the system named is durch Reserpin induzierten Hypothermie. Put plainly: Antireserpine activity (reserpine-induced hypothermia). It counts as in vivo, Maus. The method, then:
Zur Zeit 0 erhalten die Mäuse intraperitoneal Reserpin (2,5 mg/kg).
4 Stunden danach, wenn die Hypothermie genügend stark erscheint (30 bis 33°C), verabreicht man die verschiedenen zu untersuchenden Verbindungen i.p. oder p.o. Alle 30 Minuten über einen Zeitraum von 2 Stunden mißt man die Rektaltemperatur mit einer auf konstante Tiefe eingeführten, ein Thermoelement tragenden Sonde. Die Rektaltemperatur der mit verschiedenen erfindungsgemäßen Verbindungen behandelten Tiere wird mit der Temperatur einer Kontrollgruppe verglichen, die destilliertes Wasser auf die gleiche Weise wie die untersuchten Verbindungen erhält.
Die Akinesie (fehlende Bewegungen) und Ptose (Öffnungsgrad des Augenlids von 0 bis 4 nach Rubin u.a 1957) werden ebenfalls alle 30 Minuten über einen Zeitraum von 2 Stunden bewertet.
Die eine antidepressive Aktivität besitzenden Produkte wirken der durch Reserpin induzierten Hypothermie entgegen. Für jede Dosis der verabreichten Verbindung berechnet man die prozentuale Hemmung der Hypothermie.

Experiment [2] has as its system Maus. Put plainly: Tail suspension test. Conditions: ip; mouse, i.p.; footnote of Tabelle 1; read-out: tail suspension test= positiv ab. It counts as in vivo. The source says: Schwanzaufhängungstest an der Maus wie von Stéru u.a. beschrieben (Psychopharmacology 85, 367-370, 1985).
Die Substanzen werden intraperitoneal 30 Minuten vor dem Test verabreicht und die Tiese isoliert (10 Mäuse pro Dosis).
Man bewertet die Dauer der Unbeweglichkeit, ausgedrückt in Sekunden über die 6 Minuten des Tests. Man untersucht auf eine Verkürzung dieser Unbeweglichkeitszeit.

A further experiment relates to Motoraktivität. Put plainly: Actimetry (motor activity, photocell actimeter). Format: in vivo, Maus. As to conditions: mouse; direction of change of motor activity. The source says:
Die Motoraktivität wird mittels Photozellenaktimetern bestimmt (Boissier und Simon, Arch. Int. Pharmacodyn. 1965, 158, 212-221).
Die Mäuse (10 oder ein Vielfaches von 10 pro Gruppe) werden unmittelbar nach i.p. Verabreichung der zu untersuchenden Verbindungen in das Aktimeter eingesetzt. Die Motoraktivität wird danach bis zur 60. Minute gemessen. De Zähler werden nach 30 Minuten abgelesen und dann auf 0 zurückgestellt und im Verlauf von 30 Minuten alle 10 Minuten abgelesen.
Die Beweglichkeit der mit den verschiedenen Verbindungen behandelten Tiere wird mit derjenigen einer destilliertes Wasser erhaltenden Kontrollgruppe verglichen.
Die eine psychostimulierende Aktivität besitzenden Produkte verursachen eine Zunahme der Beweglichkeit.

For another experiment, the system named is Apomorphin 16 mg/kg. Put plainly: Antiapomorphine activity (apomorphine 16 mg/kg s.c., hypothermia). Format: in vivo, Maus. The method, then:
Zur Zeit 0 nach Ausgleich der Reaktaltemperaturen werden die Mäuse (6 pro Gruppe) in deren Beobachtung gestattende Einzelkäfige (11 x 3,5 x 4 cm) eingeetzt. 30 Minuten nach i.p. bzw. p.o. Verabreichung der Testsubstanz erhalten sie Apomorphin subkutan in einer Dosis von 16 mg/kg. Die Rektaltemperatur wird 30 Minuten nach dem Apomorphin gemessen. Die Kontrolltiere erhalten destilliertes Wasser statt der zu untersuchenden Verbindungen. Die bei diesen Kontrolltieren, die 16 mg/kg Apomorphin erhalten haben, beobachtete Hypothermie liegt im Durchschnitt bei 33°C. Für jede Verbindungsdosis berechnet man die prozentuale Hemmung der Hypothermie.

In a further experiment the test system is Toxizität des Yohimbins. Put plainly: Potentiation of yohimbine toxicity. Format: in vivo, Maus. Conditions: for minimal effective dose: Mus musculus, ip. The method, then:
Wirkung auf die Toxizität des Yohimbins
Zur Zeit 0 erhalten die Mäuse entweder destilliertes Wasser oder verschiedene zu untersuchende Verbindungen i.p. 30 Minuten danach verabreicht man ihnen subkutan eine infratoxische Dosis von 25 mg/kg Yohimbinchlorhydrat.
Die Mortalität wird jede Stunde über einen Zeitraum von 4 Stunden verfolgt und dann nach 24 Stunden notiert.
Die eine antidepressive Aktivität besitzenden Produkte verursachen eine Potenzierung der Toxizität des Yohimbins.

Experiment [3] concerns Maus. Nature of the experiment: Hot plate test (licking and jumping), analgesia. Format: in vivo. How it is done:
Heizplattentest: Lecken und Springen, wie von Jacob und Blozovski beschrieben (Arch. Int. Pharmacodyn. 133, 296-209, 1961).
Die in Sekunden ausgedrückten Reaktionszeiten auf einer Heizplatte werden unter Berücksichtigung des Leckens der Vorderpfoten und Springen des Tieres als Kriterien bewertet. Die beiden Reaktionen werden am selben, anfänglich untrainierten Tier mit einer maximalen Ansprechzeit (Obergrenze) von 240 Sekunden beobachtet. Die Temperatur der Platte wird auf 56,6°C gehalten.
Morphin als positive Kontrolle wird subkutan und die übrigen Substanzen (mg/kg) werden intraperitoneal 30 Minuten vor dem Test verabreicht. Positives Ansprechen zeigt sich in einer Zunahme der Reaktionszeit.
Wird der schadensverhütenden Wirkung eine Substanz durch Naloxon entegengewirkt, so kann man schließen, daß die Substanz tatsächlich eine analgetische Wirkung besitzt.

Setting [4] is: ip, mouse, i.p., only or lowest value of the cell, read-out: Erste wirksame Dosis Reserpin.
The mark [5] stands for this setting: ip, mouse, i.p., only or lowest value of the cell, read-out: Erste wirksame Dosis Apomorphin 16 mg/kg.
Setting [6] is: read-out: Erste wirksame Dosis Yohimbin, mouse, i.p., only or lowest value of the cell.
The mark [7] stands for this setting: Mus musculus, ip, read-out: Erste wirksame Dosis Reserpin, mouse, i.p., only or lowest value of the cell.
[8] abbreviates: Mus musculus, ip, read-out: Erste wirksame Dosis Apomorphin 16 mg/kg, mouse, i.p., only or lowest value of the cell.
Where [9] appears, read: Mus musculus, read-out: Erste wirksame Dosis Apomorphin 16 mg/kg, mouse, further value in the same cell, route not stated (lowest = i.p.; p.o. also tested).
Where [10] appears, read: mouse, i.p., only or lowest value of the cell.
[11] abbreviates: mouse, Tabelle 5a, Naloxon alone 0,5 mg/kg.

“And” between values parts separate entries of the source, which are not always exact repeats. Identical values can stand only once. Counter-ions that a name gives are not always drawn. Like-named read-outs stand apart in the source and are kept apart here.

`COc1ccc([C@@H]2CCNC[C@H]2c2ccccc2)cc1` (racemic) [Beispiel 2, trans-4-(4-Methoxyphenyl)-3-phenylpiperidinchlorhydrat]: the minimal effective dose is 4 mg/kg in experiment [1] (setting [4]); not below 8 mg/kg in the experiment on Maus [2]; 1 mg/kg in the experiment with Apomorphin 16 mg/kg (setting [5]); 2 mg/kg in the experiment on Apomorphin 16 mg/kg (mouse, further value in the same cell, route not stated (lowest = i.p.; p.o. also tested), read-out: Erste wirksame Dosis Apomorphin 16 mg/kg). Besides, the Aktimetrie result in the experiment on Motoraktivität was “↘”.

In the case of `Clc1ccc([C@@H]2CCNC[C@H]2c2ccccc2)cc1` [Beispiel 18], the minimal effective dose in the experiment on Toxizität des Yohimbins (setting [6]) stood at 1 mg/kg; in experiment [1] (setting [7]), 0.5 mg/kg; with Apomorphin 16 mg/kg (setting [8]), 0.5 mg/kg; with Apomorphin 16 mg/kg (setting [9]) it was 2 mg/kg. For the same compound, the Aktimetrie result in the experiment on Motoraktivität is “↗”.

Turning to `Cc1ccc([C@@H]2CCNC[C@H]2c2ccccc2)cc1` (relative stereo) [10 (HCl-Salz), trans-4-(4-Methylphenyl)-3-phenylpiperidin], in experiment [1] (Mus musculus, read-out: Erste wirksame Dosis Reserpin, mouse, further value in the same cell, route not stated (lowest = i.p.; p.o. also tested)), the minimal effective dose is 16 mg/kg. The “Erste wirksame Dosis Reserpin” value in experiment [1] (setting [10]) came out at 4 mg/kg. Moreover, the Aktimetrie entry with Motoraktivität is given as “↘”. Also, the “Erste wirksame Dosis Apomorphin 16 mg/kg” value in the experiment with Apomorphin 16 mg/kg (setting [10]) was 16 mg/kg.

As for `CC(=O)Oc1ccc([C@@H]2CCNC[C@H]2c2ccccc2)cc1` (racemic) [Beispiel 11, trans-4-(4-Acetoxyphenyl)-3-phenylpiperidinchlorhydrat], the minimal effective dose in the experiment on Toxizität des Yohimbins (setting [6]) came to 16 mg/kg; in experiment [1] (setting [4]) it was 4 mg/kg; in the experiment with Apomorphin 16 mg/kg (setting [5]) it was 1 mg/kg.

Consider `Clc1ccc(C2CNCCC2c2ccccc2)cc1` (stereo not drawn) [8 (Base), trans-3-(4-Chlorphenyl)-4-phenylpiperidin], for which the minimal effective dose in experiment [1] (setting [7]) worked out at 8 mg/kg; in the experiment with Apomorphin 16 mg/kg (setting [8]) it was 16 mg/kg. For the same compound, the Aktimetrie result in the experiment with Motoraktivität is “↘”.

With `Cc1ccc([C@@H]2CCNC[C@H]2c2ccccc2)cc1` (relative stereo) [10 (Base), trans-4-(4-Methylphenyl)-3-phenylpiperidin], the values for the minimal effective dose in the experiment with Toxizität des Yohimbins (setting [6]), in the experiment with Apomorphin 16 mg/kg (setting [8]) and with Apomorphin 16 mg/kg (setting [9]) were 16 mg/kg, 16 mg/kg and 32 mg/kg, respectively. Besides, the “Erste wirksame Dosis Reserpin” value in experiment [1] (setting [10]) is reported as 16 mg/kg. Further, the Aktimetrie result in the experiment on Motoraktivität is reported as “↘”.

In the case of `Clc1ccc(C2CNCCC2c2ccccc2)cc1Cl` (stereo not drawn) [Beispiel 13, trans-3-(3,4-Dichlorphenyl)-4-phenyl-piperidin-maleinat], the minimal effective dose in the experiment with Toxizität des Yohimbins (setting [6]) was found to be 16 mg/kg; in experiment [1] (setting [7]), 8 mg/kg; in the experiment on Apomorphin 16 mg/kg (setting [8]), 4 mg/kg. Besides, the Aktimetrie entry in the experiment with Motoraktivität is “↘”.

As to `Oc1ccc([C@@H]2CCNC[C@H]2c2ccccc2)cc1` (racemic) [7 (1.Stufe), trans-4-(4-Hydroxyphenyl)-3-phenylpiperidin-bromhydrat], the minimal effective dose was 4 mg/kg in the experiment on Toxizität des Yohimbins (setting [6]); 16 mg/kg in the experiment with Toxizität des Yohimbins (read-out: Erste wirksame Dosis Yohimbin, mouse, further value in the same cell, route not stated (lowest = i.p.)); 32 mg/kg in experiment [1] (setting [7]); 0.5 mg/kg in the experiment on Apomorphin 16 mg/kg (setting [8]). Besides, the Aktimetrie entry in the experiment with Motoraktivität was “↘”.

Take `C=CCN1CC[C@]23c4c5ccc(O)c4O[C@H]2C(=O)CC[C@@]3(O)[C@H]1C5` [Naloxon, reference compound]: in the experiment with Maus [3] (setting [11]), the Pfotenlecken is 5,5 ± 0,3 Sekunden and 5,2 ± 0,3 Sekunden; the Sprünge is 63 ± 6 Sekunden and 67 ± 5 Sekunden.

For `c1ccc([C@@H]2CCNC[C@H]2c2ccccc2)cc1` (relative stereo) [21 (HCl-Salz), trans-3,4-Diphenylpiperidin], the “Erste wirksame Dosis Yohimbin” value with Toxizität des Yohimbins (setting [10]) came to 16 mg/kg. Also, the “Erste wirksame Dosis Reserpin” value in experiment [1] (setting [10]) stood at 4 mg/kg. Besides, the Aktimetrie result with Motoraktivität is “↗”. Besides, the “Erste wirksame Dosis Apomorphin 16 mg/kg” value with Apomorphin 16 mg/kg (setting [10]) is recorded as 4 mg/kg.

Consider `Clc1ccc(C2CNCCC2c2ccccc2)cc1` (stereo not drawn) [8 (HCl-Salz), trans-3-(4-Chlorphenyl)-4-phenylpiperidin], for which the minimal effective dose in the experiment on Toxizität des Yohimbins (setting [6]) is 16 mg/kg. In experiment [1] (setting [10]), the “Erste wirksame Dosis Reserpin” value is listed as 4 mg/kg. Further, in the experiment with Motoraktivität, the Aktimetrie entry was “↘”. Besides, the “Erste wirksame Dosis Apomorphin 16 mg/kg” value in the experiment on Apomorphin 16 mg/kg (setting [10]) is listed as 8 mg/kg.

With `CN1CC[C@]23c4c5ccc(O)c4O[C@H]2[C@@H](O)C=C[C@H]3[C@H]1C5` [Morphin, reference compound], in the experiment on Maus [3] (in vivo, sc, 2 mg/kg), the Pfotenlecken is 8,1 ± 0,6 p < 0,01 Sekunden and the Sprünge is 158 ± 17 p < 0,01 Sekunden.
